Reference: PubChem BioAssay (NCI)
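Step 1: Grow cells in 96-well plates. Step 2: Expose to compound for 48 hours at 5 concentrations. Step 3: Interpolate endpoints linearly; if unreached, use highest concentration. GI50: concentration for 50% inhibition of growth. TGI denotes the concentration required for complete inhibition of growth.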

Legend:
Assay in all cases: NCI anticancer screen, dose series, 48 h
[1] = test system: NCI-H460 lung
[2] = test system: MOLT-4 leukemia
[3] = test system: KM20L2 colon
[4] = test system: LOX IMVI melanoma
[5] = test system: NCI-H23 lung
[6] = test system: SK-MEL-28 melanoma
[7] = test system: CCRF-CEM leukemia
[8] = test system: HCT-116 colon
[9] = test system: HOP-62 NSCLC
[10] = test system: UACC-257 melanoma
[11] = test system: SF-539 CNS
[12] = test system: HCC-2998 colon
[13] = test system: OVCAR-8 ovarian
[14] = test system: DLD-1 colon
[15] = test system: UO-31 renal
[16] = test system: HOP-18 NSCLC
[17] = test system: MALME-3M melanoma
[18] = test system: COLO 205 colon
[19] = test system: SR leukemia

Row | Structure (SMILES) | TGI [1] | TGI [2] | TGI [3] | TGI [4] | TGI [5] | TGI [6] | TGI [7] | TGI [8] | TGI [9] | TGI [10] | TGI [11] | TGI [12] | TGI [13] | TGI [14] | TGI [15] | TGI [16] | TGI [17] | TGI [18] | GI50 [17] | TGI [19]
1 | CC(C)Cc1ccc(C(C)C(=O)N2CCN(/C=C/c3ccccc3)CC2)cc1 (stereo not given) | 32.9 µM | 23.4 µM | 29.9 µM | 33.1 µM | 27.1 µM | 32.1 µM | 37.1 µM | 26.3 µM | 29.7 µM | 31.4 µM | 28.9 µM | 31.8 µM | 29.1 µM | 27.3 µM | 24 µM | 35.9 µM | 30.4 µM | 29.5 µM |  | 
2 | O=c1cc[nH]c(=O)[nH]1 | 883 µM | > 919 µM | > 1000 µM | 866 µM | > 315 µM | > 900 µM | > 950 µM | > 821 µM | > 872 µM | > 1000 µM | 926 µM | 528 µM | > 1000 µM | > 1000 µM | > 1000 µM | > 1000 µM | > 1000 µM | 384 µM | > 851 µM | 
3 | O=C1c2cccc3c2C(=O)c2c(cccc21)OCCOCCOCCOCCO3 | > 100 µM | > 100 µM | > 100 µM | > 100 µM | > 100 µM |  | > 100 µM | > 100 µM | > 100 µM | > 100 µM | > 100 µM | > 100 µM | > 100 µM | > 100 µM | 99.8 µM | > 100 µM | > 100 µM |  |  | 58.9 µM
4 | NC(CCCCCP(=O)(c1ccccc1)C1C=CC=CC1)C(=O)O (stereo not given) | > 100 µM | > 100 µM |  | > 100 µM | > 100 µM | > 100 µM | > 100 µM | > 100 µM |  | > 100 µM | > 100 µM |  | > 100 µM |  | > 100 µM |  |  | > 100 µM |  | > 100 µM
5 | CCN(CC)CCNc1ccc2nnn3c4ccc(OCCN(CC)CC)cc4c(=O)c1c23 | > 100 µM | 39 µM |  |  | > 100 µM | > 100 µM | 49 µM | > 100 µM | 72.9 µM | > 100 µM | > 100 µM | > 100 µM | > 100 µM |  | > 100 µM |  |  | > 100 µM |  | 45.4 µM
6 | O=P(O)(O)CCP(=O)(O)O | > 100 µM | > 100 µM |  | > 100 µM | > 100 µM | > 100 µM | > 100 µM | > 100 µM | > 100 µM | > 100 µM | > 100 µM |  | > 100 µM |  | > 100 µM |  | > 100 µM | > 100 µM |  | > 100 µM
7 | COc1ccc(/C=C2\CCNC2=O)cc1 | > 100 µM | > 100 µM | > 100 µM | > 100 µM | > 100 µM | > 100 µM | > 100 µM | > 100 µM | > 100 µM | > 100 µM | > 100 µM | > 100 µM | > 100 µM | > 100 µM | > 100 µM | > 100 µM | > 100 µM | > 100 µM |  | 
8 | C=CCc1c(O)c2c(c3oc(=O)cc(C)c13)CC(C)O2 (stereo not given) | > 100 µM | > 100 µM | > 100 µM | > 100 µM | > 100 µM |  | > 100 µM | > 100 µM | > 100 µM | > 100 µM | > 100 µM | > 100 µM | > 100 µM | > 100 µM | > 100 µM | > 100 µM | > 100 µM |  |  | > 100 µM
9 | CCCC(=O)OCC1OC(n2ccc(N)nc2=O)C(OC(=O)CCC)C1OC(=O)CCC (stereo not given) | > 100 µM | 66.9 µM | > 100 µM | > 100 µM | > 100 µM | > 95.2 µM | > 100 µM | > 100 µM | 8.55 µM | > 100 µM | > 100 µM | > 100 µM | > 100 µM | > 100 µM | > 100 µM | > 100 µM | > 100 µM | > 100 µM |  | 
10 | CCOc1ncn(-c2ccc(NC(=S)Nc3ncccn3)cc2)n1 | > 100 µM | 57.3 µM |  | 37.9 µM | > 100 µM | 59.8 µM | 59.1 µM | > 100 µM | > 100 µM | > 100 µM | 33.5 µM | 46 µM | 56 µM |  | 36 µM |  |  | 81.7 µM |  | 59.5 µM
11 | Cc1c(O)ccc2c(O)c(NC(=O)c3ccc4c(c3)CCC(C)(C)O4)c(=O)oc12 | > 100 µM | > 100 µM |  | > 100 µM | > 100 µM | > 100 µM | > 100 µM | > 100 µM | > 100 µM | > 100 µM | > 100 µM | > 100 µM | > 100 µM |  | > 100 µM |  | > 100 µM | > 100 µM |  | > 100 µM
